For series [1], the system named is Par-4 secretion from mouse fibroblasts. The series is described as follows: Par-4 secretion into conditioned medium, quantitative Western blot normalised to CollA1. The format is cell-based. The settings on record: for Relative Levels of Par-4 Secretion by Arylquins Administered at 500 nM: 24 h, mouse fibroblasts, CM; for Par-4 secretory activity (in words): SAR discussion; for Par-4 secretory activity (in words) / Ratio of Par-4 Secretion by Arylquin 1 Relative to Vehicle: 500 nM. How it is done: Calibration curve developed using fixed amounts (0.05-5 ng) of recombinant TRX-Par-4. […] Therefore the concentration was 0.82 ng/40 μL or 540 pM, In the same fashion, calculation for Par-4 concentration using vehicle (v) was 280 pM.
Biological activity of 3-Arylquinolines. […] After 24 h exposure, the CM and lysates were subjected to quantitative Western blot analysis for Par-4 and collagen (CollA1).
Co-immunoprecipitation and Western blot analysis. Protein extracted from cell lysates was filtered, pre-cleared with 25 μL (bed volume) of protein G-Sepharose beads and immunoprecipitated with 1 μg of respective antibodies. The eluted proteins were resolved by SDS-PAGE, and subjected to Western blot analysis as described previously. Bensch, et al. Nature 1968, 218(5147):1176-1177.
Statistical analyses. All experiments were performed in triplicate to verify the reproducibility of the findings. […] Statistical analyses were carried out with Statistical Analysis System software (SAS Institute, Cary, N.C.) and P values were calculated using the Student t test.

Another series concerns the target hERG potassium channel (Homo sapiens, UniProt Q12809). From the text:
hERG Binding studies, An HEK-293 cell line stably expressing the hERG potassium channel (accession number U04270) referred to as hERG-HEK cells were received at passage 11 (P11) from Millipore (CYL3006, lot 2, Billerica, Mass.). [^3H]-Dofetilide (specific activity of 80 Ci/mmol; labeled on the N-methyl group) was obtained from American Radiolabeled Chemicals (St. Louis, Mo.). Other chemicals and solvents were obtained from Sigma-Aldrich (Milwaukee, Wis.). Polyethylenimine (PEI) was obtained from Fluka/Sigma-Aldrich (St. Louis, Mo.), and Minimium Essential Medium (MEM) with GlutaMAX™ and phenol red, MEM non-essential amino acids solution (NEAA, 100×), G418 disulfate salt solution, fetal bovine serum (FBS), 0.05% Trypsin-EDTA 1× with phenol red, and Hank's balanced salt solution (HBSS) were obtained from Life Technologies (Carlsbad, Calif.).
hERG-HEK Cell culture. hERG-FIEK Cells were cultured according to the protocol provided by Millipore. Cells were maintained in MEM (with glutamax and phenol red) supplemented with 10% […], 1% NEAA and […], and incubated at 37 ° C. in a humidified atmosphere with 5% CO2. Frozen aliquots of cells were transferred into T-75 cm^2 flasks and allowed to adhere for 4-8 h. The medium was replaced every 2 days. Passages were carried out at least 3 times after thawing at 6 day intervals. Cells were dissociated with trypsin/EDTA and seeded into new 150×25 mm dishes at 2-3×10^6 cells per dish and placed at 30° C., 5% CO2, for 40-48 h prior to membrane preparation. Membrane preparation occurred 6 days after the last passage (passage 20).
Membrane preparation. Cell membrane preparation was based on previous methods. See Herrmann, et al. J Mol Biol 1996, 264:933-953; Lavie, et al. J Org Chem 1965, 30(6):1774-1778; Chen, et al. A Practical Guide to Assay Development and High-throughput Screening in Drug Discovery, CRC Press Taylor and Francis Group, Boca Raton, Fla., 2010; Redfern, et al. Cardiovasc Res 2003, 58, 32-45. Cells were rinsed twice with HBSS at 37° C. and collected by scraping the dishes in 20 mL of ice-cold 0.32 M sucrose and homogenized on ice with a Teflon pestle using a Maximal Digital homogenizer (Fisher Scientific, Pittsburgh, Pa.) at 280 rpm for 30 sec. Homogenates were centrifuged at 300 g and 800 g for 4 min each at 4° C. Pellets were resuspended in 9 mL of ice-cold Milli-Q water and osmolarity restored by addition of 1 mL of 500 mM Tris buffer (pH 7.4) followed by suspension and centrifugation at 20,000 g for 30 min at 4° C. Pellets were homogenized in 2 mL assay buffer (50 mM Tris, 10 mM KCl, and 1 mM MgCl2, 4° C.) and aliquots of cell membrane suspensions were stored at −80° C. and thawed the day of the [^3H]-dofetilide binding assay. Protein content was determined prior to the assay using a Bradford protein assay with bovine albumin as the standard.
[^3H]-Dofetilide binding assay. [^3H]-Dofetilide binding assays using hERG-HEK293 cell membranes were based on previous methods. Redfern, et al. Cardiovasc Res 2003, 58, 32-45. Assays determining concentration-response were conducted in duplicate, and three independent assays were performed for each analog evaluated. […] Radioactivity was determined by liquid scintillation spectrometry using the Tri-Carb 2100-TR Liquid Scintillation Analyzer (Perkin-Elmer Life and Analytical Sciences) […]

Bounds are passed on as bounds.

A word on the IC50: it is the concentration needed to halve the response being measured.

Chain of hERG potassium channel (Q12809 whole entry): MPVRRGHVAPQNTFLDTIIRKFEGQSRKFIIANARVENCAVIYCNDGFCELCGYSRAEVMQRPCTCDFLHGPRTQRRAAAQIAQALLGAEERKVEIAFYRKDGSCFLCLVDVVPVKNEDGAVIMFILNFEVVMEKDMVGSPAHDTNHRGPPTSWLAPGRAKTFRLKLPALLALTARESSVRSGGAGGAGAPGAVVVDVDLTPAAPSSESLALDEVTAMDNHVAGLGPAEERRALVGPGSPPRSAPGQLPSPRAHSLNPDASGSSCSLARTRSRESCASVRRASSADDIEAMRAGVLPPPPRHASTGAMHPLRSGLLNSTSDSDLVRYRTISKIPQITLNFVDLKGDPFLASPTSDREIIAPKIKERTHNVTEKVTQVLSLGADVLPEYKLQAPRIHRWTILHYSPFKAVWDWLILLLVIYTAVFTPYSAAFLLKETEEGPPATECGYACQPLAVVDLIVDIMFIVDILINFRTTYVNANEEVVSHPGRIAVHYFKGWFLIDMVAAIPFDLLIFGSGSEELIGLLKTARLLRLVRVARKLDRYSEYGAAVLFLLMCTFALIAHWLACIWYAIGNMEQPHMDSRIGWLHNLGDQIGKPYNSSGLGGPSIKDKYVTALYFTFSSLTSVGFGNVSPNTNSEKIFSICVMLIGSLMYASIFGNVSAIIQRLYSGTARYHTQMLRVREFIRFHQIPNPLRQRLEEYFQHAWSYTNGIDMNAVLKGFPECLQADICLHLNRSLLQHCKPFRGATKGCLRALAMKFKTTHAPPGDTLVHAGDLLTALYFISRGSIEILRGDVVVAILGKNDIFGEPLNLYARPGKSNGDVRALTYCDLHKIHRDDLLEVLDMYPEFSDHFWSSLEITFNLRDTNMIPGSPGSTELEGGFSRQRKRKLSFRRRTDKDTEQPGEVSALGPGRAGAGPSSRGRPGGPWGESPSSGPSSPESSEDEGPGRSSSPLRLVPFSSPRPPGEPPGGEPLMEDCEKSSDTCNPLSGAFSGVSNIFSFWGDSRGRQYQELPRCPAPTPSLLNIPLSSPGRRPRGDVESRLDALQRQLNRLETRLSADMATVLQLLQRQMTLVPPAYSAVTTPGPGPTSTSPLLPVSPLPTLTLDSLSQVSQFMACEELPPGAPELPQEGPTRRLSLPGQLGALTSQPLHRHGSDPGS

Take `CN(C)c1ccc2cc(-c3cccc(F)c3)c(N)nc2c1` [Arylquin 1d]: in series [1] (Table 1), the “Relative Levels of Par-4 Secretion by Arylquins Administered at 500 nM” value (“Relative Levels of Par-4 Secretion” below) worked out at 66.8 ± 10.9. Moreover, the “Par-4 secretory activity (in words)” value in series [1] was “weakly active”. This compound showed an IC50 against hERG potassium channel of 1.59 ± 0.39 µM.
In the case of `CN(C)c1ccc2cc(-c3ccc(F)cc3)c(N)nc2c1` [Arylquin 1f], in series [1] (Table 1), the “Relative Levels of Par-4 Secretion” value is on record as 12.3 ± 2.0. Moreover, the “Par-4 secretory activity (in words)” value in series [1] is “weakly active”. The compound further yielded an IC50 at hERG potassium channel of 30.2 ± 10.3 µM.
As for `CN(C)c1ccc2cc(-c3ccccc3F)c(=S)[nH]c2c1` [Arylquin 10], in series [1] (Table 2), the “Ratio of Par-4 Secretion by Arylquin 1 Relative to Vehicle” value stood at 1.7 and the “Relative Levels of Par-4 Secretion” value was 51.7 ± 4.9. The “Par-4 secretory activity (in words)” value in series [1] is listed as “diminished Par-4 secretory activity relative to arylquinoline 1a”. The same compound registered an IC50 against hERG potassium channel greater than 100 µM.
Consider `CN(C)c1ccc2cc(-c3ccccc3F)c(N3CCOCC3)nc2c1` [Arylquin 13a, 3-(2-Fluorophenyl)-NA-dimethyl-2-morpholinoquinolin-7-amine], for which, in series [1] (Table 2), the “Ratio of Par-4 Secretion by Arylquin 1 Relative to Vehicle” value was 1.8 and the “Relative Levels of Par-4 Secretion” value is given as 54.4 ± 2.8. Also, the “Par-4 secretory activity (in words)” value in series [1] is “diminished activity to varying degrees”. Moreover, the IC50 on hERG potassium channel stood at 23.3 ± 3.05 µM.
Taken in the same sequence, the figures for `Nc1nc2ccccc2cc1-c1ccccc1F` [Arylquin 15a] were 2.8, 82.1 ± 21.2, “decreased Par-4 secretory activity only slightly” and 14.6 ± 5.82 µM.

(Values after patent US20160332971A1, “ARYLQUINOLINE, ARYLQUINOLONE AND ARYLTHIOQUINOLONE DERIVATIVES AND USE THEREOF TO TREAT CANCER” (UNIVERSITY OF KENTUCKY RESEARCH FOUNDATION, priority 2015, published 2016).)
